Paper PMC8037650, “Biochemical Characterization of Recombinant UDPG-Dependent IAA Glucosyltransferase from Maize (Zea mays)” (International Journal of Molecular Sciences, 2021)

Experiments:
IAGlc synthase [1] = target: T1, IAGlc synthase (Zea mays, UniProt Q41819); assay: […]IAA glucosylation TLC radioassay, Dixon plot; assay type: biochemical
T1 construct: gene IAGLU; recombinant, N-terminally His-tagged, expressed in E. coli
T1 sequence (Q41819 1-471): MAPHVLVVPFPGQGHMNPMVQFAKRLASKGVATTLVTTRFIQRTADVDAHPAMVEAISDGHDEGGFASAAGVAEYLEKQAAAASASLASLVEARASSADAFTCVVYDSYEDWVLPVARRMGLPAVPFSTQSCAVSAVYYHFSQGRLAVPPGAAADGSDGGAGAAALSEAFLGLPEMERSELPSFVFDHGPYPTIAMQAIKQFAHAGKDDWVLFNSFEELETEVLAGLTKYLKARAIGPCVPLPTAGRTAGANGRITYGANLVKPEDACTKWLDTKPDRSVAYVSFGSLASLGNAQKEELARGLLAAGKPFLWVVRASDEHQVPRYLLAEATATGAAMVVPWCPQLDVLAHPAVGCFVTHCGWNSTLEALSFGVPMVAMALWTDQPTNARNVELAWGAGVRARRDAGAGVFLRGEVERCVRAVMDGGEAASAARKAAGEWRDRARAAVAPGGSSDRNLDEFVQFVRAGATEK

IAGlc synthase [2] = target: T1, IAGlc synthase; assay: coupled spectrophotometric assay, […] acceptor (relative activity); assay type: biochemical

SMILES	Ki (IAGlc synthase [1])	Relative Activity (%) (IAGlc synthase [2])
O=C(O)COc1ccc(Cl)cc1Cl [2,4-D, 2,4-dichlorophenoxyacetic acid]	117 ± 10 µM	
O=C(O)CCCc1c[nH]c2ccccc12 [IBA, indole-3-butyric acid]		66%
O=C(O)CCc1c[nH]c2ccccc12 [IPA, indole-3-propionic acid]		49.7%
